Experimental data from patent US4725683A, “Fluorophenoxyphenoxypropionates and derivatives thereof” (The Dow Chemical Company, priority 1985, dated 1988).

What was measured:
Assay type in all cases: in vivo
Wheat = experiment: Postemergent activity; settings: Triticum aestivum, post-emergence, 336 h, read-out: % Control
Outline: (§1)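 Pots of plants about 10 cm tall sprayed to run-off at 125, 62.5, 31.25, 15.6, 7.8 and 3.9 ppm. Spray: active in acetone mixed with an equal volume of water containing 0.1% TWEEN 200. Growth scored two weeks later on a 0–100 scale (0 no effect, 100 complete kill).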

Wild Oats = experiment: Postemergent activity; settings: Avena fatua, post-emergence, 336 h
Outline: as §1

Barley = experiment: Postemergent activity
Outline: (§2)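 Applied postemergence to run-off on ~10 cm potted plants, using an acetone/water (0.1% TWEEN 200) spray.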

Yellow Foxtail = experiment: Postemergent activity
Outline: as §2

Green Foxtail = experiment: Postemergent activity
Outline: as §2

Cheatgrass = experiment: Postemergent activity
Outline: as §2

Blackgrass = experiment: Postemergent activity
Outline: as §2

Orchardgrass = experiment: Selective postemergence, track sprayer
Method: (§3) Representative compositions of the present invention were evaluated for the postemergence control of species of plants listed in Table A. In these evaluations, pots of the plant species listed in Table A, grown to a height of about 10 cms, were used. Aqueous spray compositions, containing various amounts of 2-[4-(2-fluoro-4-trifluoromethylphenoxy)-phenoxy]propionic acid methy ester, i.e., 125 ppm, 62.5 ppm, 31.25 ppm, 15.6 ppm, 7.8 ppm and 3.9 ppm, respectively, were applied to separate pots. The spray compositions were made by mixing the active ingredient in acetone to 1/2 the final volume, i.e., twice the final concentration. An equal amount of water was added to the active ingredient/acetone mixture wherein the water contained 0.1 percent by weight of TWEEN® 200 surfactant. The application to the plants was made to the point of run-off and was carried out with conventional spraying equipment. Other pots were sprayed with similar compositions containing no toxicant to serve as controls. Thereafter, the pots were maintained under conditions conducive for plant growth. Two weeks after treatment, the pots were examined for plant growth and evaluated on a scale of 0 to 100 where 0 represents no effect and 100 represents complete kill. The results of the examination of the treated pots are set forth below in Table A.
(§4) To further define the selective postemergence herbicidal characteristics of compounds of the present invention, chemicals were applied to additional species of grasses as listed in Table F. Chemicals evaluated were 2-[4-(4-bromo-2-fluorophenoxy)phenoxy]propionic acid methyl ester and its R isomer. Treatment conditions were similar to those described in Example A except that chemicals were delivered through a track sprayer set to deliver the appropriate dosages in 280.6 L/hectare of water containing 0.1% Tween-20 surfactant.

Sprangletop = experiment: Selective postemergence, track sprayer
Method: as §3, §4

Broadleaf Signalgrass = experiment: Selective postemergence, track sprayer
Method: as §3, §4

Giant Foxtail = experiment: Selective postemergence, track sprayer
Method: as §3, §4

COC(=O)C(C)Oc1ccc(Oc2ccc(Br)cc2F)cc1 (racemic) [Example 4-Bromo-, 2-[4-(4-bromo-2-fluorophenoxy)phenoxy]propionic acid methyl ester]
99%: % Control (Blackgrass; 6.25 ppm)
70%: pest or weed control at 3.9 ppm (Wild Oats; 3.9 ppm) | % Control (Blackgrass; 3.1 ppm) | Percent Control (Broadleaf Signalgrass; 0.0011 kgs/hectare)
80%: pest or weed control at 7.8 ppm (Wild Oats; 7.8 ppm, read-out: % Control) | % Control (Yellow Foxtail; 3.1 ppm) | Percent Control (Orchardgrass; 0.07 kgs/hectare) | Percent Control (Broadleaf Signalgrass; 0.0045 kgs/hectare)
20%: % Control (Yellow Foxtail; 0.8 ppm) | % Control (Green Foxtail; 0.2 ppm) | Percent Control (Sprangletop; 0.0023 kgs/hectare)
30%: % Control (Barley; 500 ppm) | % Control (Blackgrass; 0.8 ppm)
100%: pest or weed control at 15.6 ppm (Wild Oats; 15.6 ppm, read-out: % Control) | pest or weed control at 31.25 ppm (Wild Oats; 31.25 ppm, read-out: % Control) | pest or weed control at 62.5 ppm (Wild Oats; 62.5 ppm, read-out: % Control) | pest or weed control at 250 ppm (Wild Oats; 250 ppm, read-out: % Control) | pest or weed control at 500 ppm (Wild Oats; 500 ppm, read-out: % Control) | % Control (Yellow Foxtail; 6.25 ppm) | % Control (Yellow Foxtail; 12.5 ppm) | % Control (Yellow Foxtail; 25 ppm) | % Control (Green Foxtail; 1.5 ppm) | % Control (Green Foxtail; 3.1 ppm) | % Control (Green Foxtail; 6.25 ppm) | % Control (Green Foxtail; 12.5 ppm) | % Control (Green Foxtail; 25 ppm) | % Control (Blackgrass; 12.5 ppm) | % Control (Blackgrass; 25 ppm) | Percent Control (Sprangletop; 0.009 kgs/hectare) | Percent Control (Sprangletop; 0.035 kgs/hectare) | Percent Control (Sprangletop; 0.14 kgs/hectare) | Percent Control (Sprangletop; 0.28 kgs/hectare) | Percent Control (Sprangletop; 0.56 kgs/hectare) | Percent Control (Broadleaf Signalgrass; 0.009 kgs/hectare) | Percent Control (Broadleaf Signalgrass; 0.035 kgs/hectare) | Percent Control (Broadleaf Signalgrass; 0.07 kgs/hectare) | Percent Control (Broadleaf Signalgrass; 0.14 kgs/hectare) | Percent Control (Broadleaf Signalgrass; 0.28 kgs/hectare) | Percent Control (Broadleaf Signalgrass; 0.56 kgs/hectare) | Percent Control (Giant Foxtail; 0.0011 kgs/hectare) | Percent Control (Giant Foxtail; 0.0023 kgs/hectare) | Percent Control (Giant Foxtail; 0.0045 kgs/hectare) | Percent Control (Giant Foxtail; 0.009 kgs/hectare) | Percent Control (Giant Foxtail; 0.035 kgs/hectare) | Percent Control (Giant Foxtail; 0.14 kgs/hectare) | Percent Control (Giant Foxtail; 0.28 kgs/hectare) | Percent Control (Giant Foxtail; 0.56 kgs/hectare)
50%: % Control (Yellow Foxtail; 1.5 ppm) | % Control (Blackgrass; 1.5 ppm)
10%: % Control (Barley; 62.5 ppm) | % Control (Barley; 125 ppm) | % Control (Barley; 250 ppm) | % Control (Blackgrass; 0.4 ppm)
0%: plant injury at 3.9 ppm (Wheat; 3.9 ppm) | plant injury at 7.8 ppm (Wheat; 7.8 ppm) | plant injury at 15.6 ppm (Wheat; 15.6 ppm) | plant injury at 31.25 ppm (Wheat; 31.25 ppm) | plant injury at 62.5 ppm (Wheat; 62.5 ppm) | plant injury at 125 ppm (Wheat; 125 ppm) | plant injury at 250 ppm (Wheat; 250 ppm) | plant injury at 500 ppm (Wheat; 500 ppm) | % Control (Barley; 3.9 ppm) | % Control (Barley; 7.8 ppm) | % Control (Barley; 15.6 ppm) | % Control (Barley; 31.25 ppm) | % Control (Yellow Foxtail; 0.2 ppm) | % Control (Yellow Foxtail; 0.4 ppm) | % Control (Cheatgrass; 0.2 ppm) | % Control (Cheatgrass; 0.4 ppm) | % Control (Cheatgrass; 0.8 ppm) | % Control (Cheatgrass; 1.5 ppm) | % Control (Cheatgrass; 3.1 ppm) | % Control (Cheatgrass; 6.25 ppm) | % Control (Cheatgrass; 12.5 ppm) | % Control (Cheatgrass; 25 ppm) | % Control (Blackgrass; 0.2 ppm) | Percent Control (Orchardgrass; 0.0011 kgs/hectare) | Percent Control (Orchardgrass; 0.0023 kgs/hectare) | Percent Control (Orchardgrass; 0.0045 kgs/hectare) | Percent Control (Orchardgrass; 0.009 kgs/hectare) | Percent Control (Orchardgrass; 0.035 kgs/hectare) | Percent Control (Sprangletop; 0.0011 kgs/hectare)
90%: % Control (Green Foxtail; 0.4 ppm) | % Control (Green Foxtail; 0.8 ppm) | Percent Control (Orchardgrass; 0.14 kgs/hectare) | Percent Control (Orchardgrass; 0.28 kgs/hectare) | Percent Control (Orchardgrass; 0.56 kgs/hectare) | Percent Control (Broadleaf Signalgrass; 0.0023 kgs/hectare)
95%: pest or weed control at 125 ppm (Wild Oats; 125 ppm, read-out: % Control) | Percent Control (Sprangletop; 0.0045 kgs/hectare)
